According to PubChem BioAssay (NCI):
Several values for one entry are separate records, joined by “and”; a condition that tells them apart may be missing. Identical values can stand only once.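 Step 1: Grow cells in 96-well plates. Step 2: Expose to compound for 48 hours at 5 concentrations. Step 3: Interpolate endpoints linearly; if unreached, use highest concentration. TGI: total growth inhibition.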

Key:
Assay in all cases: NCI-60 cell line screen, 48 h
A549 NSCLC = tested on: A549 NSCLC
ACHN renal = tested on: ACHN renal
CAKI-1 renal = tested on: CAKI-1 renal
HCC-2998 colon = tested on: HCC-2998 colon
HCT-15 colon = tested on: HCT-15 colon
HS 578T breast = tested on: HS 578T breast
HT29 colon = tested on: HT29 colon
IGROV1 ovarian = tested on: IGROV1 ovarian
KM12 colon = tested on: KM12 colon
LOX IMVI melanoma = tested on: LOX IMVI melanoma
M14 melanoma = tested on: M14 melanoma
MCF7 breast = tested on: MCF7 breast
MDA-MB-231 breast = tested on: MDA-MB-231 breast
NCI-H226 lung = tested on: NCI-H226 lung
NCI-H23 lung = tested on: NCI-H23 lung
OVCAR-8 ovarian = tested on: OVCAR-8 ovarian
SK-MEL-28 melanoma = tested on: SK-MEL-28 melanoma
SK-MEL-5 melanoma = tested on: SK-MEL-5 melanoma
SN12C renal = tested on: SN12C renal
SNB-19 CNS = tested on: SNB-19 CNS

Row | Structure (SMILES) | TGI (A549 NSCLC) [µM] | TGI (ACHN renal) [µM] | TGI (CAKI-1 renal) [µM] | TGI (HCC-2998 colon) | TGI (HCT-15 colon) | TGI (HS 578T breast) [µM] | TGI (HT29 colon) [µM] | TGI (IGROV1 ovarian) | TGI (KM12 colon) [µM] | TGI (LOX IMVI melanoma) | TGI (M14 melanoma) [µM] | TGI (MCF7 breast) [µM] | TGI (MDA-MB-231 breast) | TGI (NCI-H226 lung) | TGI (NCI-H23 lung) [µM] | TGI (OVCAR-8 ovarian) | TGI (SK-MEL-28 melanoma) [µM] | TGI (SK-MEL-5 melanoma) | TGI (SN12C renal) [µM] | TGI (SNB-19 CNS) [µM]
1 | COc1ccc(/C=C/C(=O)/C=C/c2ccc(OC)cc2)cc1 | > 100 | > 100 | > 100 | 15.7 µM | > 100 µM | > 100 | > 100 | > 100 µM | 59.6 | > 100 µM | 57.2 | > 100 | > 100 µM | 98.3 µM | > 100 | 31.4 µM | > 100 | > 100 µM | > 100 | > 100
2 | Cc1nc2ccc(S(=O)(=O)Nc3ccccc3)cc2c(=O)n1NC(=O)CNc1ccccc1 | > 100 | > 100 | > 100 | > 100 µM | > 100 µM | > 100 | > 100 | > 100 µM | > 100 | > 100 µM | > 100 | > 100 | > 100 µM | > 100 µM | > 100 | > 100 µM | > 100 | – | > 100 | > 100
3 | C=CCN1C(=O)/C(=C/c2ccc(OC)cc2)NC1=S | > 100 | > 100 | > 100 | > 100 µM | > 100 µM | > 100 | > 100 | > 100 µM | > 100 | > 100 µM | > 100 | > 100 | > 100 µM | > 100 µM | > 100 | > 100 µM | > 100 | > 100 µM | > 100 | > 100
4 | COC1CC(OC2C(C)OC(OC3C(C)OC(OC4C(O)CC(O[C@H]5CC[C@@]6(C)C(=CC[C@]7(O)[C@@H]6C[C@@H](OC(=O)/C=C/c6ccccc6)[C@@]6(C)[C@]7(O)CC[C@@]6(O)C(C)=O)C5)OC4C)CC3OC)CC2OC)OC(C)C1O (stereo partly specified) | > 6.25 | > 6.25 | > 6.25 | > 6.25 µM | > 6.25 µM | > 6.25 | > 6.25 | > 6.25 µM | > 6.25 | > 6.25 µM | > 6.25 | > 6.25 | > 6.25 µM | > 6.25 µM | > 6.25 | > 6.25 µM | – | > 6.25 µM | > 6.25 | > 6.25
5 | CC(C)(C)C(=O)C(C(=O)C(C)(C)C)C(=O)C(C)(C)C | > 100 | > 100 | > 100 | > 100 µM | > 100 µM | > 100 | > 100 | > 100 µM | > 100 | > 100 µM | > 100 | > 100 | > 100 µM | > 100 µM | > 100 | > 100 µM | > 100 | > 100 µM | > 100 | > 100
6 | Cc1c(C)c2c(c(N)c1C#N)C(=O)N(Nc1ccccc1)C2=O | > 100 | > 100 | > 100 | > 100 µM | > 100 µM | > 100 | – | > 100 µM | > 100 | > 100 µM | > 100 | > 100 | > 100 µM | > 100 µM | – | > 100 µM | > 100 | > 100 µM | > 100 | > 100
7 | Nc1nc(N)c(NC(=O)CCCO)c(=O)[nH]1 | > 100 | > 100 | > 100 | > 100 µM | > 100 µM | > 100 | > 100 | > 100 µM | > 100 | > 100 µM | > 100 | > 100 | > 100 µM | > 100 µM | > 100 | > 100 µM | – | > 100 µM | > 100 | > 100
8 | CC(=O)OCC(OC(C)=O)C(OC(C)=O)C(OC(C)=O)C(C=NN(C(C)=O)S(=O)(=O)c1ccc(/C=C2\NC(=O)N(C)C2=O)cc1)OC(C)=O (stereo unspecified) | > 100 | > 100 | > 100 | 32 µM and > 100 µM | 61.9 µM and 67.1 µM | > 100 | > 100 | 75.2 µM and > 100 µM | > 100 | 33 µM and 66 µM | > 100 | > 100 | > 100 µM and 96.4 µM | 96.5 µM and > 100 µM | > 100 | > 100 µM and 86.7 µM | – | 90.3 µM and 86.2 µM | > 100 | > 100
9 | O=C1c2ccccc2NC(=O)C2C1C(c1ccccc1)CC2(O)c1ccccc1 (stereo unspecified) | > 100 | > 100 | > 100 | > 100 µM | > 100 µM | 98.3 | > 100 | > 100 µM | > 100 | > 100 µM | > 100 | > 100 | > 100 µM | – | > 100 | > 100 µM | > 100 | > 100 µM | > 100 | > 100
10 | COC(=O)C1(c2cc3ccccc3n2S(=O)(=O)c2ccccc2)CC2C=CC1NC2 (stereo unspecified) | 10.9 | 3.82 | 4.27 | 3.8 µM | 3.93 µM | > 25.9 | 4.44 | 3.22 µM | 8.29 | 3.73 µM | 3.44 | 3.06 | 3.67 µM | 21.4 µM | 6.85 | 4.42 µM | 8.49 | 16.7 µM | 4.69 | 5.98
11 | Cc1ccc(NN=NCCCCN)cc1 | > 100 | > 100 | > 100 | > 100 µM | > 100 µM | > 100 | > 100 | > 100 µM | > 100 | > 100 µM | > 100 | > 100 | > 100 µM | > 100 µM | > 100 | > 100 µM | – | > 100 µM | > 100 | > 100
12 | CC(OC(C)(C)C)[C@H](NC(=O)OC(C)(C)C)C(=O)O (stereo partly specified) | > 100 | > 100 | > 100 | > 100 µM | > 100 µM | > 100 | > 100 | > 100 µM | > 100 | > 100 µM | > 100 | > 100 | > 100 µM | > 100 µM | > 100 | > 100 µM | – | > 100 µM | > 100 | > 100
